In US6737237B1, “Antimicrobial agents, diagnostic reagents, and vaccines based on unique Apicomplexan parasite components” (Apicomplexan Therapeutics, LLC, priority 1999, dated 2004):
Converted amounts (≈) assume the structure as drawn.

How the values were obtained:
[1] = test system: D6 clone of Plasmodium falciparum; test: P. falciparum in vitro assay (Milhous et al., 1985), D6 clone; type: cell-based; conditions: D6, 66 h
[2] = test system: T. gondii tachyzoites (RH strain); test: microbe, parasite or virus in culture; type: cell-based, Toxoplasma gondii
Method: The improvements are based on microscopic visual imspection of infected and inhibitor treated cultures, and on quantitation of nucleic acid synthesis of the parasite by measure intake of ^3H uracil onto the parasite's nucleic acid. Uracil is not utilized by mammalian cells. […] Only the RH strain tachyzoites, cultured for up to 72 hours, had been used in previously reported assays. The use of Me49, Ptg, and R5 mutant are unique aspects of the methods used in these assays in this invention.
(§1) In these assays toxicity of a candidate inhibitor was assessed by its ability to prevent growth of human foreskin fibroblasts (HFF) after 4 days and after 8 days as measured by tritiated thymidine uptake and microscopic evaluation. Confluent monolayers of HFF were infected with tachyzoites and bradyzoites. Inhibitor was added one hour later. Non-toxic doses were used in parasite growth inhibition assays. Parasite growth was measured by ability to incorporate tritiated uracil during the last 18 hours of culture.
(§2) First the toxicity of gabaculine was assessed by its ability to prevent growth of human foreskin fibroblasts (HFF) as measured by ^3H-thymidine uptake and microscopic evaluation. Non-toxic doses were used in parasite growth inhibition assays. in vitro parasite growth inhibition assays included confluent monolayers of HFF infected with tachyzoites (RH) or mutant Me49 (R5). Gabaculine was added 1 hour later. Parasite growth was measured by the ability to incorporate ^3H-uracil during the last 18 hours of culture. In addition, parasite growth was evaluated microscopically in Giemsa stained slides.
ii) in vitro Parasite Growth Inhibition Assays: Confluent monolayers of HFF cells, grown in 96-well plates are infected with T. gondii tachyzoites of the RH strain and serial dilutions of anti-microbial compound are applied 1 hour later. T. gondii growth is assessed in these cultures by their ability to incorporate tritiated uracil (2.5 μCi/well) added during the last 18 hours of culture. After harvesting cells with an automatic cell harvester, uracil incorporation is measured by liquid scintillation.

C. parvum = C. parvum infection of MDBKF5D2 cell monolayers, immunofluorescence assay at 48 hours; type: cell-based, Cryptosporidium parvum
Method: C. parvum oocysts at 50,000/well were incubated at 37° C. (8% CO2) on confluent MDBKF5D2 cell monolayers in 96 well microtiter plates with the following concentrations of each drug. […] The level of infection of each well was determined and analyzed by an immunofluorescence assay at 48 hours using an antibody to C. parvum sporozoites made in rabbits at a concentration of 0.1%. Fluorescein-conjugated goat anti-rabbit antibody was used at a concentration of 1%.
(8% carbon dioxide) on confluent MDBKF5D2 cell monolayers in 96 well microtiter plates. The level of infection of each well was determined and analyzed by an immunofluorescence assay at 48 hours using as an antibody C. parvum sporozoite rabbit anti-serum (0.1%), and using fluorescein-conjugated goat anti-rabbit antibody (1%). Data are expressed as mean parasite count/field when 16 fields counted at 10× magnification “s.d. of the mean” (FIG. 6).

Toxoplasma gondii ACC = test: ACC activity in T. gondii tachyzoite protein extracts (carboxyl incorporation from bicarbonate); type: biochemical
From the text: In plants, genes encoding enzymes for fatty acid synthesis, including various subunits of ACC except one, are present in the nuclear genome and their protein products are imported and function in plastids. ACC, catalyzing the first committed step of de novo fatty acid biosynthesis, is a known selective target of aryloxyphenoxypropionate (“fops”) and cyclohexanedione (“dims”) herbicides in sensitive species. The molecular mechanism of inhibition/resistance of the enzyme is not know but there is a strong correlation between the enzyme structure and its origin. The high molecular weight multi-domain ACC that is localized in plastids of grasses is extremely sensitive to these herbicides. All of the multi-subunit chloroplast enzymes of dicot plants and bacteria as well as other multi-domain cytosolic ACCs, such as those from man, chicken, rat and yeast, are resistant. ACC activity is conveniently measured in vitro by the incorporation of the carboxyl group from bicarbonate into an acid-stable form using crude protein extracts after Sephadex G50 filtration. […] One band at 240 kDa corresponded to the expected size for a subunit of ACC, while another at 130 kDA corresponded to the size expected for pyruvate carboxylase (PC).
(§3) Structures of fops and dims were tested on the ACC-containing protein extracts of T. gondii described above. Three of the four fops were striking inhibitors of the activity, while none of the dims had any effect against the enzyme. […] Effects of the herbicides on uninfected fibroblasts and on T. gondii growth and replication were tested as previously described by Roberts et al., 1998 using incorporation of radiolabeled thymidine by growing fibroblasts to assess toxicity and incorporation of radiolabeled uracil to measure T. gondii growth and persistence. Anti-parasite activity and toxicity for four fops and one representative dim were determined. Pyrimethamine and sulfadiazine, antimicrobial agents which are known inhibitors of folate synthesis, were included as positive control. […] Consistent with the data for ACC activity in vitro, the inhibitory activity of the fops and the dim on T. gondii growth in fibroblasts was in the same concentration range. […] With regard to toxicity, fops are mildly toxic at the highest concentration, 400 μM. In separate experiments, the effect of Clodinafop on T. gondii was assessed by light microscopy. […] In this experiment, cultures were incubated for 2 more days without the inhibitor.

Toxoplasma tachyzoites = test: Light microscopy of T. gondii infected fibroblasts treated with Clodinafop; type: cell-based, Toxoplasma gondii; conditions: for parasites in infected fibroblasts: 4-day treatment, one change of medium and inhibitor after 2 days, then 2 more days without inhibitor; for number of T. gondii cells in infected fibroblasts: two days
Method: as §3

[3] = test system: human foreskin fibroblasts (HFF); test: Toxicity: growth of fibroblasts, tritiated thymidine uptake and microscopic evaluation; type: cell-based; conditions: herbicide experiments
Method: as §1, §2
d) Inhibitors: Inhibitor compounds are tested over a range of concentrations for toxicity against mammalian cells by assessing their ability to prevent cell growth as measured by tritiated thymidine uptake and inspection of the monolayer using microscopic evaluation. […]

T. gondii [4] = test: Assay for synergy in vitro: inhibitors alone and together on replication of T. gondii (uracil CPM); type: cell-based, Toxoplasma gondii; conditions: for CPM for B: Drug B alone: Sulfadiazine (6.25 μg/ml), Pyrimethamine (0.025 μg/ml), SHAM (0.78 μg/ml)
From the text: The effect of enzymes in pathways “in parallel” are additive and in “series” are more than the additive effect of either inhibitor used alone (i.e., synergistic). […] The shikimate pathway produces 3,4-dihdroxybenzoate which is converted to ubiquinone, an essential component of the electron transport chain. Thus, NPMG, an inhibitor of EPSP-synthase, indirectly affects ubiquinone production and, thus, the electron transport chain. Similarly, heme is required for production of cytochromes in the electron transport chain. Thus, inhibition of heme production by gabaculine also indirectly affects the conventional electron transport chain. […] T. gondii growth is measured by their ability to incorporate tritiated uracil and is expressed as counts/minute (CPM).
g) Assays for Synergy in vitro: This is an assy in which ≦50% inhibitor concentrations of two antimicrobial agents are added alone and together to determine whether there is an additive, synergistic or inhibitory interaction. All other aspects of this assay are as described herein.

T. gondii [5] = test: Effect of inhibitors on T. gondii infection in vivo (manifestations, parasitemia, brain cysts); set-up: species or system mice; conditions: mouse
Method: Cyst numbers present in a suspension of brain are enumerated, or cyst numbers in formalin fixed paraffin embedded sections are quantitated.
c) Persistance of Cysts: C3H/He mice are infected orally with 100 cysts of T. gondii (Me49 strain). Inhibitors are administered to groups of mice from day 30 post infection to day 50 post infection. Cyst burden, mortality and pathology are compared in treated and control mice on days 30 and 50 post infection and in mice that receive antibody to gamma interferon which leads to recrudescence of disease.
A method to measure the amount of parasitemia in mouse peripheral blood has been developed. Briefly, the target for PCR amplification is the 35 fold repetitive B1 gene of T. gondii and the amplification was performed using primers previously reported. […] Competitive PCR was performed by spiking individual reactions (containing equal amounts of genomic DNA) with a dilution of the internal standard. Since this internal control contains the same primer template sequences, it competes with the B1 gene of T. gondii for primer binding and amplification. The sensitivity of the PCR reaction in each sample can be monitored. Following competitive PCR, the PCR products are distinguished by size and the amount of products generated by the target and internal standard can be compared on a gel. […]

Structure (SMILES): Oc1cccc2cccnc12 [8-OH-quinoline, 8-hydroxyquinoline]
- IC50 [1]: 1.2 µg/mL (≈ 8.29 µM)
- IC90 [1]: 1.88 µg/mL (≈ 13 µM)
- activity against T. gondii (tachyzoites) [2]: effective
- approximate 95% C1 count (mean parasite count per field) (C. parvum; 8-OH-quinoline 0.1 μg/ml, media alone ~1800): ~1300
- approximate 95% C1 count (mean parasite count per field) (C. parvum; 8-OH-quinoline 1 μg/ml, media alone ~1800): ~1100
- approximate 95% C1 count (mean parasite count per field) (C. parvum; 8-OH-quinoline 10 μg/ml, media alone ~1800): ~900
- approximate 95% C1 count (mean parasite count per field) (C. parvum; 8-OH-quinoline 100 μg/ml, media alone ~1800): ~300

Structure (SMILES): C[C@@H](Oc1ccc(Oc2ncc(Cl)cc2F)cc1)C(=O)O [Clodinafop]
- inhibition of ACC activity (Toxoplasma gondii ACC; 20 μM): 50%
- inhibition of ACC activity (Toxoplasma gondii ACC; 100 μM): 90%
- parasites in infected fibroblasts (Toxoplasma tachyzoites; 10 μM): No parasite cells were found
- parasites in infected fibroblasts (Toxoplasma tachyzoites; 10 μM, listed as clodinafop): complete eradication
- number of T. gondii cells in infected fibroblasts (Toxoplasma tachyzoites; 10 μM): substantial reduction
- number of T. gondii cells in infected fibroblasts (Toxoplasma tachyzoites; 100 μM): almost complete removal
- toxicity for fibroblasts (thymidine incorporation) [3]: not toxic
- inhibition of growth of T. gondii in human fibroblasts (uracil incorporation) ([2]; 10 μM): 70%

Structure (SMILES): CC1(C)N=C(N)N=C(N)N1c1ccc(Cl)cc1 [Cycloguanil]
- combined effect of two inhibitors in vitro (additive or synergistic) (T. gondii [4]; T. gondii in culture): synergistic with NPMG

Structure (SMILES): CC(Oc1ccc(Oc2ccc(C(F)(F)F)cn2)cc1)C(=O)O (centres unmarked) [Fluazifop]
- effect on T. gondii ACC activity in crude extracts (Toxoplasma gondii ACC): relatively low inhibitory activity

Structure (SMILES): CC(Oc1ccc(Oc2ncc(C(F)(F)F)cc2Cl)cc1)C(=O)O (centres unmarked) [Haloxyfop]
- inhibition of ACC activity (Toxoplasma gondii ACC; 20 μM): 50%
- inhibition of ACC activity (Toxoplasma gondii ACC; 100 μM): 90%

Structure (SMILES): CCc1nc(N)nc(N)c1-c1ccc(Cl)cc1 [Pyrimethamine]
- CPM for B (T. gondii [4]): 69217 ± 3253 CPM

Structure (SMILES): CC(Oc1ccc(Oc2cnc3cc(Cl)ccc3n2)cc1)C(=O)O (centres unmarked) [Quizalofop, ()-2-[4-[(6-chloro-2-quinoxalinyl)oxy]phenoxy]propanoic acid]
- inhibition of ACC activity (Toxoplasma gondii ACC; 20 μM): 50%
- inhibition of ACC activity (Toxoplasma gondii ACC; 100 μM): 90%

Structure (SMILES): O=C(NO)c1ccccc1O [SHAM, Salicylhydroxamic acid]
- parasitemia and number of brain cysts (T. gondii [5]): affects parasitemia and number of brain cysts
- CPM restricted (tritiated uracil incorporation) ([2]; SHAM 0.16 μg/ml (0.19), 4 day, medium around 54,000 CPM): around 50%
- counts (tritiated uracil incorporation) ([2]; SHAM 0.78 μg/ml, 4 day, medium around 54,000, no RH around 1,000 CPM): about 8,000 CPM
- CPM for B (T. gondii [4]): 42993 ± 1098 CPM
- approximate 95% C1 count (mean parasite count per field) (C. parvum; SHAM 0.1 μg/ml, 0.2% ETOH, media and ethanol ~1200): ~1200
- approximate 95% C1 count (mean parasite count per field) (C. parvum; SHAM 1 μg/ml, 0.2% ETOH, media and ethanol ~1200): ~1100
- approximate 95% C1 count (mean parasite count per field) (C. parvum; SHAM 10 μg/ml, 0.2% ETOH, media and ethanol ~1200): ~1100
- approximate 95% C1 count (mean parasite count per field) (C. parvum; SHAM 100 μg/ml, 0.2% ETOH, media and ethanol ~1200): ~400

Structure (SMILES): Nc1ccc(S(=O)(=O)Nc2ncccn2)cc1 [Sulfadiazine]
- manifestations of infection in vivo (T. gondii [5]): reduced manifestations of infection
- growth of T. gondii reduced [2]: about 60%
- CPM for B (T. gondii [4]): 25026 ± 4365 CPM

Structure (SMILES): NC[C@@H]1O[C@H](O[C@H]2[C@@H](O)[C@H](O[C@@H]3[C@@H](O)[C@H](N)C[C@H](N)[C@H]3O[C@H]3O[C@H](CO)[C@@H](O)[C@H](O)[C@H]3N)O[C@@H]2CO)[C@H](N)[C@@H](O)[C@@H]1O [paromomycin]
- approximate 95% C1 count (mean parasite count per field) (C. parvum; PRM without ethanol, media alone ~1800): ~200
- approximate 95% C1 count (mean parasite count per field) (C. parvum; paromomycin (PRM) and ethanol, media and ethanol ~1200): ~100
